Measurements from PubChem BioAssay (NCI).
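All cell lines were grown in 96-well plates and treated with compound for 48 hours. GI50: concentration for 50% inhibition of growth. TGI marks complete inhibition of growth.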

What was measured:
Assay in all cases: inhibition of tumour cell growth, NCI panel, 48 h
[1] = system: OVCAR-4 ovarian
[2] = system: M19-MEL melanoma
[3] = system: COLO 205 colon
[4] = system: LXFL 529 NSCLC
[5] = system: SNB-78 CNS
[6] = system: OVCAR-3 ovarian
[7] = system: HS 578T breast
[8] = system: NCI/ADR-RES ovarian
[9] = system: HOP-92 NSCLC
[10] = system: A498 renal
[11] = system: 786-0 renal
[12] = system: PC-3 prostate

Compound | TGI [1] | TGI [2] | TGI [3] | TGI [4] | TGI [5] | TGI [6] | TGI [7] | TGI [8] | TGI [9] | TGI [10] | TGI [11] | TGI [12] | GI50 [8]
COc1cc(C(C)c2cc3c(cc2OCCO)OCO3)cc(OC)c1OC (configuration not stated) | > 100 µM | > 100 µM | 7.47 µM | > 100 µM | > 100 µM |  |  |  |  |  |  |  | 
S=C1SCN(Cc2ccco2)CN1c1ccc(Br)cc1 | 37.5 µM |  | 32 µM |  |  | 21.1 µM | > 100 µM | 77.6 µM | 60.7 µM | 66.1 µM | 33 µM | 37 µM | 
CCOC(=O)c1cnc2oc3ccc(O)cc3c2c1-c1ccccc1 | > 100 µM |  | > 100 µM |  |  | > 100 µM | > 100 µM | 73.7 µM | > 100 µM | > 100 µM | > 100 µM | > 100 µM | 4.77 µM
COc1cc2cc[n+]3c(C)c4cc(OC)c(OC)cc4c([O-])c3c2cc1OC | > 100 µM | > 100 µM | 48.3 µM | > 100 µM | > 100 µM | 24.7 µM |  |  | > 100 µM | > 100 µM |  |  | 
Cc1nc2c(sc(=S)n2-c2ccccc2)c(=O)[nH]1 |  |  | > 100 µM | > 100 µM |  | > 100 µM |  |  | > 100 µM | > 100 µM |  |  | 
CCOC(=O)c1c(N2CCCC2)ncn(Cc2ccccc2)c1=S | > 100 µM |  | > 100 µM |  |  | > 100 µM | > 100 µM | > 100 µM | > 100 µM | > 100 µM | > 100 µM | > 100 µM | 
CCCC(=O)NC(Nc1ccc(S(=O)(=O)Nc2nc(C)cc(C)n2)cc1)(C(F)(F)F)C(F)(F)F | > 100 µM |  | > 100 µM |  |  | > 100 µM | > 100 µM | > 100 µM | > 100 µM | > 100 µM | > 100 µM | > 100 µM | 
CCCCCCCCCCCCCCCCCCNc1ccn(C2OC(COP(=O)(O)OCC3OC(n4cc(F)c(NCCCCCCCCCCCCCCCCCC)nc4=O)CC3O)C(O)C2O)c(=O)n1 (configuration not stated) | > 100 µM |  | > 100 µM |  |  | > 100 µM | > 100 µM | > 100 µM | > 100 µM | > 100 µM | > 100 µM | > 100 µM | 
COc1ccc(C(=O)Cc2ccc(Br)cc2)cc1OC | > 100 µM | > 100 µM |  | > 100 µM | > 100 µM | > 100 µM |  |  |  | > 100 µM |  |  | 
COC(=O)[C@H]1CO[C@H]2C/C(C)=C/CC/C(C)=C/CC[C@@]3(C)O[C@@H]3C[C@H]21 | > 50 µM |  | 22.6 µM |  |  | 47.3 µM | 36.5 µM | 29 µM | > 50 µM | > 50 µM | > 50 µM | > 50 µM | 
C#CCSC(C=C=C)P(=O)(OC(C)C)OC(C)C (configuration not stated) | > 100 µM |  | > 100 µM |  |  | > 100 µM | 44.1 µM | > 100 µM | > 100 µM | > 100 µM | > 100 µM | > 100 µM | 
COc1ccccc1Cc1nc(-c2ccccc2)nn(C2OC(COC(C)=O)C(OC(C)=O)C(OC(C)=O)C2OC(C)=O)c1=S (configuration not stated) | 8.58 µM | > 100 µM | > 86.9 µM |  | > 70.1 µM | > 85.3 µM |  | > 100 µM | 24.4 µM | > 56.2 µM |  |  | 
Cc1c2c(n(CCc3ccc(Cl)cc3)c1C)NC(c1ccccc1)C(C#N)S2(=O)=O (configuration not stated) | > 100 µM |  | > 71.4 µM |  |  | > 100 µM | > 79.5 µM | > 100 µM | > 100 µM | > 100 µM | > 100 µM | > 100 µM | 
CC1(c2ccc[n+](Cc3ccccc3)c2)OCCO1 | > 100 µM | > 100 µM | > 100 µM | > 100 µM | > 100 µM | > 100 µM |  |  |  | > 100 µM | > 100 µM |  | 
CC(=O)c1c(C(F)(F)F)n([O-])c2cc(Cl)c(Cl)cc2[n+]1=O | 2.73 µM |  | 2.11 µM |  |  | 3.19 µM | 2.38 µM | 4.85 µM | 0.88 µM | 2.5 µM | 0.38 µM | 3.09 µM | 
O=C(Nc1nc2ccccc2s1)c1cc([N+](=O)[O-])ccc1Cl | > 100 µM |  | > 100 µM |  |  | > 82.5 µM | 15.7 µM | > 76.4 µM | > 38.9 µM | > 100 µM | > 58.6 µM | > 70.3 µM | 
Cc1ccc2c(c1C)C(=O)/C(=C/c1ccccc1C(=O)O)C2 | > 100 µM |  | > 100 µM |  |  | > 100 µM | > 100 µM | > 100 µM | > 100 µM | > 100 µM | > 100 µM | > 100 µM | 
COc1ccccc1NC(=O)CC(=O)N1N=C(C)C(N=Nc2ccc(C(=O)O)cc2)C1=O (configuration not stated) | > 100 µM |  | > 100 µM |  |  | > 100 µM | > 100 µM | > 100 µM | > 100 µM | > 100 µM | > 100 µM | > 100 µM | 
O=C(Nc1ccccc1)N(CCCCN(Cc1ccccc1)C(=O)Nc1ccccc1)Cc1ccccc1 | > 100 µM |  | > 100 µM |  |  | > 100 µM | > 100 µM | > 100 µM | > 100 µM | > 100 µM | > 100 µM | > 100 µM | 
CC(=O)Oc1c2oc3ccc(Cl)cc3c(=O)c2c(O)c2ccsc12 | > 100 µM |  | > 100 µM |  |  | > 100 µM | > 100 µM | > 100 µM | > 100 µM | > 100 µM | > 100 µM | > 100 µM | 
COC(=O)c1c(OC(C)=O)ccc2c1c1c(n2C)C(=O)c2ccccc2C1=O | > 100 µM |  | > 100 µM |  |  | 63 µM | 39.1 µM | > 100 µM | 9.58 µM | 41.7 µM | > 100 µM | 88.1 µM | 
COC(=O)c1c(O)ccc2c1c1c(n2Cc2cccc(C)c2)C(=O)c2ccccc2C1=O | 20.1 µM |  | 3.04 µM |  |  | 22.8 µM | 34.9 µM | 25 µM | 19.8 µM | 33.9 µM | 25.8 µM | 23.5 µM | 
O=C1C(=O)c2ccccc2C(O)=C1CCCc1ccc(Oc2ccccc2)cc1 | > 100 µM | 37.9 µM | 32.1 µM | > 100 µM | 97.3 µM | 24.9 µM |  |  | 49.5 µM | 90.5 µM | 35.4 µM |  | 
CCOC(=O)c1nc2ccc(C(F)(F)F)cc2nc1Oc1cc(OC)cc(OC)c1 | 95.1 µM |  | > 100 µM |  |  | > 100 µM | 64.2 µM | > 100 µM | > 100 µM | > 100 µM | > 100 µM | > 100 µM | 
C/C(Nc1ccc(F)cc1)=C1/CCOC1=O | > 100 µM |  | 47 µM |  |  | > 100 µM | > 100 µM | > 100 µM | > 100 µM | > 100 µM | > 100 µM | > 100 µM | 
O=c1cc(N2CCN(c3cc(=O)n4ccccc4n3)CC2)oc2ccccc12 | > 100 µM |  | > 100 µM |  |  | > 100 µM | > 80.2 µM | > 100 µM | > 100 µM | > 100 µM | > 100 µM | > 100 µM | 
CN1CCN(CCCBr)CC1 | > 100 µM |  | > 100 µM |  |  | > 100 µM | > 100 µM | > 100 µM | > 100 µM | > 100 µM | > 100 µM | > 100 µM | 
N#Cc1ccccc1-c1nc2c3c(c(N)ccc3n1)C(=O)c1ccccc1-2 | > 100 µM |  | > 100 µM |  |  | > 100 µM | > 100 µM | > 100 µM | > 100 µM | > 100 µM | > 100 µM | > 100 µM | 
CC1=NN(c2nc(N)nc(/C(C#N)=C/c3cccn3-c3cc(Cl)cc(Cl)c3)n2)C(C)(C)C1 | > 100 µM |  | > 100 µM |  |  | > 100 µM | > 100 µM | > 100 µM | > 100 µM | > 100 µM | > 100 µM | > 100 µM | 
COc1ccc(C)cc1Nc1nnc(-c2ccccc2N)s1 | > 100 µM |  | > 100 µM |  |  | > 100 µM | > 100 µM | > 100 µM | > 100 µM | > 100 µM | > 100 µM | > 100 µM | 
